From patent US20250092360A1, “METHODS AND COMPOSITIONS FOR GENERATING SOMATOSTATIN+ INTERNEURONS FROM HUMAN FOREBRAIN NEURAL PROGENITOR CELLS” (Trailhead Biosystems Inc., priority 2023, published 2025)
Several values for one entry are separate records, joined by “and”; a condition that tells them apart may be missing. Identical values can stand only once. Entries after “also recorded” stand apart in the source; their conditions may differ.

B1: GDNF: Glial cell line-derived neurotrophic factor; can activate the GDNF pathway (protein, UniProt P39905 78-211, looked up)
Glial cell line-derived …: SPDKQMAVLPRRERNRQAAAANPENSRGKGRRGQRGKNRGCVLTAIHLNVTDLGLGYETKEELIFRYCSGSCDAAETTYDKILKNLSRNRRLVSDKVGQACCRPIAFDDDLSFLDDNLVYHILRKHSAKRCGCI

How the values were obtained:
[1] = system: forebrain-committed neural stem cells; experiment: HD-DoE stage 2, 12-factor experiment: NKX2-1 expression; assay type: cell-based, human; settings: model / dynamic profile, in words
Method: To further guide the differentiation of forebrain-committed neural stem cells to ventral forebrain neural stem cells at stage 2, a HD-DoE experiment was performed for 3 days after termination of stage 1 treatment. […] This 12-factor experiment included LDN193189, BMP7, PD0325901, MK2206, A8301, XAV939, CHIR99021, Purmorphamine, SANT-1, AGN193109, TTNPB and GSI-XX. […]

[2] = system: stage 2 neural stem cells; experiment: Factor criticality analysis, stage 3 recipe; assay type: cell-based, human; settings: other five stage 3 factors present
Method: (§1) To assess the impact of the elimination of each validated factor, dynamic profile analysis was used and compared the expression level of genes of interest in absence of each finalized factor while others are present.
In the stage 3 recipe, each of the six finalized factors were removed while the other five factors remained present and the expression levels of ASCL1, DLX1 and LHX6 were assessed compared to the presence of all six factors. […] As expected, in the absence of IGF-1, the value of DLX1 increases to 410, however, ASCL1 and LHX6 decreased to 1390 and 220, respectively.

[3] = system: medial ganglionic eminence (MGE)-derived neural progenitors; experiment: HD-DoE stage 4, 12-factor experiment: SOX6 expression; assay type: cell-based, human; settings: for impact on expression of SOX6: dynamic profile, in words; for factor contribution, expression of SOX6: positive impact, model optimized for maximal SOX6 at 1442
Excerpt: These effectors are small chemical compounds or proteins. They are commonly used during the differentiation of stem cells to specific cell linage. The choice of the effectors was based on the current literature on forebrain neural induction and differentiation of neural progenitor cells to mature neurons.
To evaluate the effectors on SST differentiation, experiments with 8 or 12 factors were designed to assess the responses of cells to 48 or more combinations of effectors in a range of concentrations. To analyze the models, we focused on expression of genes involved in development and patterning of the forebrain interneurons maturation including LHX6 (Liodis et al. (2007) J. Neurosci. 27:3078-3089; Yuan et al. (2018) Elife 7: e37382), SOX6 (Azim et al. (2009) Nature Neurosci. 12:1238-1247; Batista-Brito et al. (2009) Neuron 63:466-481), DLX5 (de Lombares et al. (2019) Aging (Albany NY) 11:6638; Wang et al. (2010) J. Neurosci. 30:5334-5345) and ASCL1 (Barretto et al. (2020) J. Neurosci. Meth. 334:108548; Shi et al. (2016) J. Biol. Chem. 291:13560-13570). At later stages we focused on interneuron maturation genes including somatostatin and absence of Parvalbumin (Horn and Nicoll (2018) Proc. Natl. Acad. Sci. 115:589-594). The impacts of each effector on gene expression level are defined by a parameter called factor contribution that is calculated for each effector during the modeling.
To identify the recipe for differentiation at stage 4, at least 48 different combinations of effectors were robotically prepared by the Design-of-Experiments compression through D-optimality. The effector combinations were prepared in a basal media and were subsequently added to the cells, which were then allowed to differentiate. Three days later, RNA extraction was performed, and gene expression levels were examined using quantitative PCR analysis. The data was normalized and modeled using partial least squares regression analysis to the effector design, resulting in the generation of gene-specific models, which after model tuning for maximal predictive power, provided explanation of the effectors ability to control the expression of individual genes, combinatorically, and individually. Solutions within the tested space could then be explored to address desirability.
IGF-1 activates the IGF-1 pathway, promotes neuron axonal growth, and establishes the synapse of interneurons. GDNF is the […] and can activate the GDNF pathway. MK2206 is an AKT inhibitor and can inhibit cell proliferation and promote neuronal maturation. PD173074 and BLU-554 are FGFR inhibitors. The FGF pathway is required for the maintenance of neural progenitor cells. Inhibition of the FGFR pathway promotes neural maturation. GSI-XX is a notch pathway inhibitor. Notch pathway inhibits neural progenitor cell differentiation. Inhibition of the Notch pathway promotes neural differentiation.
To find the set of factors that have the potential to optimize SOX6 in this experiment, a new assessment was done through dynamic profile analysis with focus on maximal expression of SOX6.

[4] = system: medial ganglionic eminence (MGE)-derived neural progenitors; experiment: Factor criticality analysis, stage 4 recipe; assay type: cell-based, human; settings: FIG. 27, in words
Method: To assess the impact of elimination of each validated factor, dynamic profile analysis was again used to compare the expression levels of genes of interest in the absence of each finalized factor while the others were present in the media.
In the stage 4 recipe, each of the five finalized factors was removed while the other four factors remained present in the media and the expression level of forebrain genes was assessed compared to the presence of all 6 factors. SOX6 expression was reported to determine the cortical interneuron-precursors cell fate (see e.g., Azim et al. (2009) Nature Neurosci. 12:1238-1247; Batista-Brito et al. (2009) Neuron 63:466-481). Therefore, optimization of SOX6 expression was focused on at this stage.

[5] = system: stage 2 neural stem cells; experiment: HD-DoE stage 3 experiment: ASCL1, LHX6, DLX1 expression; assay type: cell-based, human
Method: To further guide the cells to medial ganglionic eminence progenitor fate, an additional HD-DoE experiment was performed for 3 days on cells that were treated with stage 1 and stage 2 media for total of 6 days prior to start of the experiment. This experiment included 13 effectors, LDN193189, A8301, GNF5837, AZD3147, GSI-XX, Takinib, PD0325901, PD173074, BLU9931, IGF-1, MHY1485, Purmorphamine and Prostratin. In this model, we focused on maximum expression of genes expressed in neuronal progenitor cells in medial ganglionic eminence (MGE) region including ASCL1, LHX6 and DLX1 (Silberberg et al. (2016) Neuron 92:59-74). When the model was optimized for maximum expression of ASCL1 at 1700, A8301, GSI-XX, Purmorphamine and Takinib, which is an inhibitor of TAK1 pathway, had the highest factor contributions, 18.1, 14.1, 12.7 and 10.1 respectively. […] MHY 1485 also had positive contribution however the factor was below 2 (FIG. 9).
Therefore, six effectors including A8301, GSI-XX, Takinib, GNF5837, IGF-1 and Purmorphamine were finalized as ingredients of stage 3 differentiation media. A representative recipe for Stage 3 differentiation is summarized below in Table 3.

[6] = system: forebrain-committed neural progenitor cells; experiment: HD-DoE stage 5, 8-factor experiment (JQ1, Indolactam-V ...): Somatostatin expression; assay type: cell-based, human
Method: To further guide the differentiation of forebrain-committed neural progenitor cells to somatostatin interneuron cells at stage 5, HD-DoE experiments were performed for 3 days after termination of stage 4 treatment. At this time, we focused on maximum expression of SST that was expressed in Somatostatin (+) interneurons and minimum expression of Parvalbumin that is another type of interneurons. This 8-factor experiment included JQ1, (−)-Indolactam-V, Oleic acid, BDNF, IGF-1, 2-phospho-L-Ascorbic acid, Albumax, MK2206. When the model was maximized for expression of Somatostatin, six effectors were identified that could increase its expression levels, including (−)-Indolactam-V, Oleic acid, BDNF, 2-phospho-L-ascorbic acid, Albumax, and MK2206, as shown in FIG. 21. Using dynamic profile analysis, the results of which are shown in FIG. 22, the model was modified to achieve the maximum expression level of Somatostatin and therefore (−)-Indolactam-V, BDNF, and 2-phospho-L-ascorbic acid were included while JQ-1, Oleic acid, Albumax and MK2206 were excluded. Considering the model at different optimization settings for maximum differentiation of cells toward ventral forebrain, the recipe for stage 5 of differentiation included (−)-Indolactam-V, BDNF, IGF-1, and 2-phospho-L-ascorbic acid from this HD-Doe experiment.

[7] = system: human pluripotent stem cells; experiment: Factor criticality analysis, stage 1 recipe (dynamic profile analysis); assay type: cell-based; settings: 3500 with all factors; FIG. 12
Excerpt: as §1, with “present. […] When Purmorphamine was removed, levels of FEZF2 and SIX3 were decreased to 1000 and below 3000, while levels of OTX2 increased to 6500.” for “present.”

[8] = system: human pluripotent stem cells; experiment: HD-DoE stage 1, additional experiment: FEZF2 expression; assay type: cell-based
Method: To identify the recipe for stage 1 of differentiation, 96 different combinations of effectors generated using Design-of-Experiments compression through D-optimality were robotically prepared. The effector combinations were prepared in a basal media and were subsequently added to the cells, which were then allowed to differentiate. Three days later RNA extraction was performed, and gene expression was obtained using quantitative PCR analysis. The data were normalized and modeled using partial least squares regression analysis to the effector design, resulting in the generation of gene-specific models, which after model tuning for maximal Q2 predictive power, provided explanation of the effectors ability to control the expression of individual genes, combinatorically, and individually. Solutions within the tested space could then be explored to address desirability. To further enhance the conditions for forebrain differentiation from pluripotency, an additional HD-DoE experiment was performed. Additional gene regulatory models were obtained that were used for preparation of the differentiation protocol. The factors in this experiment included LDN193189, PD173074, BLU9931, Purmorphamine, SC79, MK2206, ZM336372, PD0325901, CHIR99021, XAV939, UCLA-GP130, Tofacitinib and GO6983. […] Dynamic profile analysis was also used to assess the interaction between the effectors.

[9] = system: forebrain-committed neural progenitor cells; experiment: HD-DoE stage 5, 8-factor experiment (GDNF, BDNF, NT-3 ...): Somatostatin expression; assay type: cell-based, human; settings: FIG. 24 dynamic profile, in words
Method: To investigate the effects of other factors on differentiation of forebrain-committed neural progenitor cells to Somatostatin interneuron cells, an additional HD-DoE experiment was performed for 3 days on cells that were treated with stage 1 to stage 4 medium for a total of 12 days prior to the new experiment. This experiment, the results of which are shown in FIG. 23, included eight effectors, GDNF, BDNF, NT-3, ß-NGF, Linoleic acid, 5-Cholesten-3β, LIF and TGF-β3. In this model, we focused on maximum expression of Somatostatin gene expressed in Somatostatin (+) interneurons (Urban-Ciecko and Barth (2016) Nature Reviews Neurosci. 17:401-409). When the model was optimized for maximum expression of Somatostatin, BDNF, NT-3, beta-NGF and Linoleic acid had the highest factor contributions, 25.7, 2, 19.9, 23.5, respectively.
Therefore, the latter were excluded in the recipe.

Molecule	impact on expression of NKX2-1 [1]	expression level of DLX1 when the factor is removed ([2]; 220 with all six factors)	expression level of LHX6 when the factor is removed ([2]; 240 with all six factors)	expression level of ASCL1 when the factor is removed ([2]; 1650 with all six factors)	impact on expression of SOX6 [3]	factor contribution, expression of SOX6 [3]	effect on PVALB expression [4]	effect on SOX6 expression [4]	effect on Somatostatin expression [4]	impact on expression of ASCL1 ([5]; dynamic profile, in words)	impact on expression of LHX6 ([5]; dynamic profile, in words)	factor contribution, expression of ASCL1 ([5]; positive, model optimized for maximum ASCL1 at 1700)	impact on expression of Somatostatin ([6]; FIG. 21/22, in words)	factor contribution, expression of Somatostatin ([6]; positive, 8-factor experiment of FIG. 21)	expression level of FEZF2 when the factor is removed [7]	impact on expression of FEZF2 ([8]; dynamic profile, in words)	factor contribution, expression of FEZF2 ([8]; positive impact, additional stage 1 experiment optimized for FEZF2)	impact on expression of Somatostatin [9]
C[C@H](NC(=O)Cc1cc(F)cc(F)c1)C(=O)N[C@@H]1C(=O)N(C)c2ccccc2-c2ccccc21 [GSI-XX]	increase	50	140	1200	positive impact	3.6	minimal effect	increase	contribute	Positive impact	Positive impact	14.1 and 14						
NC1(c2ccc(-c3nc4ccn5c(=O)[nH]nc5c4cc3-c3ccccc3)cc2)CCC1 [MK2206]	increase				positive impact	7.2	decrease	increase					increase; also recorded: positive impact	4.2	2700	positive impact	11 and 12.2	
B1					positive impact	21		increase										negative impact
